Data: patent US20240059673A1, “SUBSTITUTED INDOLE COMPOUNDS” (Gilead Sciences, Inc., priority 2020, published 2024)
Like-named read-outs stand apart in the source and are kept apart here.

Experiments:
[1] = molecular target: T1, TLR7 (Homo sapiens, UniProt Q9NYK1); experiment: Human PBMC cell-based assay, TLR7 agonist stimulation; conditions: human PBMCs, read-out: TLR-7 EC50
T1 construct: lymphocytes, monocytes and dendritic cells that express TLR7, TLR8 and TLR9; endogenous in cells; host or cells: cryopreserved human PBMCs from healthy donors
T1 sequence (Q9NYK1 27-1049): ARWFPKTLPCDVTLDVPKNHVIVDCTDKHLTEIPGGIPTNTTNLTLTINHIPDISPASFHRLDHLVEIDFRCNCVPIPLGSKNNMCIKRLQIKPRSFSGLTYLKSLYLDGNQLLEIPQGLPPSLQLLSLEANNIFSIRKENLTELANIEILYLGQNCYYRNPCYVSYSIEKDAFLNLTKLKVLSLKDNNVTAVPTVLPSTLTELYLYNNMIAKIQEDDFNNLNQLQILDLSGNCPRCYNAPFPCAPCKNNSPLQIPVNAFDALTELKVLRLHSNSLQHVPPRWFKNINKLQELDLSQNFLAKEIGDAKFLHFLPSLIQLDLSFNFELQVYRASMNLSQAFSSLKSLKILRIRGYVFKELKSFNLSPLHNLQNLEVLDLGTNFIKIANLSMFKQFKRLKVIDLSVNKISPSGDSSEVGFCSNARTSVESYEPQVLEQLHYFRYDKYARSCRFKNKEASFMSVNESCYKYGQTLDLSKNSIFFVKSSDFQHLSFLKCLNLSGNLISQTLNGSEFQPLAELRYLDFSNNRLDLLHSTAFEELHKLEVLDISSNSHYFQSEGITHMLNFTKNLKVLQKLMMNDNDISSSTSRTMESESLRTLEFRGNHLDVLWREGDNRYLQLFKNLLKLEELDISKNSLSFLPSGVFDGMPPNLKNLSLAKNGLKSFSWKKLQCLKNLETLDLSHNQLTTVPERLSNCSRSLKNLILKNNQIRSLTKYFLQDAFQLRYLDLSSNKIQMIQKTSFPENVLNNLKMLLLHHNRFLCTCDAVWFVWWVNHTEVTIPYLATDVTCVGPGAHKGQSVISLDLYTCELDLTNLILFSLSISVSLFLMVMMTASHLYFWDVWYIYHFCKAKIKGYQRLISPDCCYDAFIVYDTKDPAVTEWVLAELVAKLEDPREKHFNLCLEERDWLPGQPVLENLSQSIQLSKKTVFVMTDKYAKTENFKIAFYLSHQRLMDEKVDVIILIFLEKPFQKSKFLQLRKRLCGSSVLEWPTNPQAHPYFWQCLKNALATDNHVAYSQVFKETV
From the text: (§1) Human Peripheral Blood Mononuclear Cell (PBMC) Cell-Based Assay
(§2) Human peripheral blood mononuclear cells (PBMCs) consist of lymphocytes, monocytes and dendritic cells that express TLR7, TLR8 and TLR9. These cells respond to TLR7, TLR8 and TLR9 ligand stimulation and produce cytokines and chemokines in vitro and in vivo. Human PBMCs are therefore suitable to be used in a cell-based assay to assess the in vitro potency of a TLR 7, 8, and/or 9 antagonist. The result is expected to be more translatable to the pharmacodynamics response in vivo than cell line-based assays.
(§3) Cryopreserved human PBMCs from healthy donors were thawed and resuspended in RPMI-1640 media with L-glutamine (Corning) supplemented with 10% Fetal Bovine Serum (Hyclone) and 1× Penicillin-Streptomycin (Corning). After counting, the cell density was adjusted to 2 million cells/ml and incubated for 1 hour at 37° C., 5% CO2 for recovery. Following the recovery, the cells were plated by adding 50p per well (100,000 cells) to 384-well cell culture plates (Greiner) containing 250 nl of test antagonists in 100% DMSO per well, in a 10 points dose response in quadruplicates. PBMCs were incubated in the presence of test antagonists for one hour at 37° C., 5% CO2 before being stimulated with a TLR7 or TLR9 agonist. GS-986 (Gilead Sciences) was used as the TLR7 agonist at a final concentration of 400 nM. ODN-2216 (InvivoGen) was used as the TLR9 agonist at a final concentration of 3μM. PBMCs were incubated in the presence of the test antagonist and the TLR7 (or TLR9) agonist for an additional 6 hours at 37° C., 5% CO2. At the end of the incubation, the cell culture plates were centrifuged at 500 g for 5 min, and the cell culture supernatant was collected. The level of cytokines (IL-6 and IFNα) in the supernatant was measured by electrochemiluminescence immunoassays (Mesoscale Discovery) following manufacturer's recommended protocols. The level of cytokine measured was plotted against the test antagonist concentration and fitted to a sigmoidal function to determine the EC50, which are shown below in Table 2.

[2] = molecular target: T2, TLR9 (Homo sapiens, UniProt Q9NR96); experiment: Human PBMC cell-based assay, TLR9 agonist stimulation; conditions: human PBMCs, read-out: TLR-9 EC50
T2 construct: lymphocytes, monocytes and dendritic cells that express TLR7, TLR8 and TLR9; endogenous in cells; host or cells: cryopreserved human PBMCs from healthy donors
T2 sequence (Q9NR96 26-1032): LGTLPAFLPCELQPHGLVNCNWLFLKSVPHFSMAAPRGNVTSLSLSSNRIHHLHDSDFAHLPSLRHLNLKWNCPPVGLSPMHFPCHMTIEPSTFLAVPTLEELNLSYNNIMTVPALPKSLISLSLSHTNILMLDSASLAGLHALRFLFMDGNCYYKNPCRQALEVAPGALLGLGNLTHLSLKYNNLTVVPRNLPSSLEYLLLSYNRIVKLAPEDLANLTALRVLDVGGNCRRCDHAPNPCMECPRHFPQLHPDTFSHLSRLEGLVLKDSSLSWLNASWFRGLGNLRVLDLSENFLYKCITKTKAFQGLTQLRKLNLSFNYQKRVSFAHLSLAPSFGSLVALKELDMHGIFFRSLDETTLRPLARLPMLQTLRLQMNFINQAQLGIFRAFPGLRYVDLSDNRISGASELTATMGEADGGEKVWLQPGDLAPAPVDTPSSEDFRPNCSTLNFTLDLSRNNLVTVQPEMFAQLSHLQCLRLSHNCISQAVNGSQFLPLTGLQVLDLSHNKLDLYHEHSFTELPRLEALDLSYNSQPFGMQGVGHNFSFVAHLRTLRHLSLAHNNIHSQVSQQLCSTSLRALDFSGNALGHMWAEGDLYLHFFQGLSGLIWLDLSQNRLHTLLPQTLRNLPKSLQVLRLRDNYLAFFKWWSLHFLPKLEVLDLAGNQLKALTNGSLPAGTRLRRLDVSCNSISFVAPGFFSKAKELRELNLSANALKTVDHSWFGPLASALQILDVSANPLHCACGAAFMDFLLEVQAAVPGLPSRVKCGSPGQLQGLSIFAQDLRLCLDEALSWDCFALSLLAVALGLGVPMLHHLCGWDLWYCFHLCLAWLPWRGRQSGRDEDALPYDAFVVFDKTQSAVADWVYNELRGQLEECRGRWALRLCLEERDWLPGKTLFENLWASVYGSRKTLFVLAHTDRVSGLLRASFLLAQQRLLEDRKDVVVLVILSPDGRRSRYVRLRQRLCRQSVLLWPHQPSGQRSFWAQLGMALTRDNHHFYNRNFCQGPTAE
From the text: as §1, §2, §3

[3] = TLR7 agonist GS-986 400 nM, 6 hours, cytokines (IL-6 and IFNα) in supernatant, Table 2
[4] = TLR9 agonist ODN-2216 3 μM, 6 hours, cytokines (IL-6 and IFNα) in supernatant, Table 2
[5] = same protocol as Example A, Table 3 comparison

Row | Compound | EC50 [1, 3] | EC50 [2, 4] | EC50 [1, 5] | EC50 [2, 5]
1 | CCc1c(-c2ccc(N3CCNCC3)nc2)[nH]c2cc(-c3cc(C)c4ncnn4c3)ccc12 [Example 23] | 0.5 nM | 305 nM |  | 
2 | Cc1cc(-c2[nH]c3ccc(-c4ccc(N5CCNCC5)nc4)cc3c2C(C)C)cc(C)n1 [Example A, reference compound] |  |  | 3.9 nM | 263 nM
3 | Cc1cc(-c2[nH]c3ccc(-c4ccc(N5CCNCC5)nc4)cc3c2C(C)C)cn2ncnc12 [Example B, reference compound] |  |  | 0.5 nM | 716 nM
4 | Cc1cc(-c2ccc3c(C)c(-c4cnc(N5CCNCC5)nc4)[nH]c3c2)cc(C)n1 [Example 1, 6-(2,6-dimethylpyridin-4-yl)-3-methyl-2-(2-(piperazin-1-yl)pyrimidin-5-yl)-1H-indole] | 7.3 nM | 34.6 nM |  | 
5 | Cc1cc(-c2ccc3c(C)c(-c4ccc(N5CCNCC5)nc4)[nH]c3c2)cc(C)n1 [Example 2, 6-(2,6-dimethylpyridin-4-yl)-3-methyl-2-(6-(piperazin-1-yl)pyridin-3-yl)-1H-indole] | 6.8 nM | 33.2 nM |  | 
6 | Cc1c(-c2ccc(N3CCNCC3)nc2)[nH]c2cc(-c3ccc(C#N)c4ncccc34)ccc12 [Example 7] | 0.5 nM | 508 nM |  | 
7 | Cc1c(-c2ccc(N3CCNCC3)nc2)[nH]c2cc(-c3cc(C)c4ncnn4c3)ccc12 [Example 4] | 1.4 nM | 322 nM |  | 
